Experimental data reported in US10392371B2, “Compounds useful as modulators of TRPM8” (Senomyx, Inc., priority 2015, dated 2019).

Experiments:
[1] = biological target: T1, hTRPM8 (Homo sapiens, UniProt Q7Z2W7); experiment: hTRPM8 agonist assay in mammalian cell line stably expressing hTRPM8; type: cell-based; details: EC50 of compound compared to that of WS-3, reported as a ratio
T1 construct: expressed in transfected cells
Method: A mammalian cell line derivative which stably expresses hTRPM8 was used in biological assays in association with testing the present compounds with cool-tasting or -feeling properties (Servant et al. US 2007/0259354 A1 and references cited therein). Typical compound concentrations tested were 100 μM, 30 μM, 10 μM, 3.3 μM, 1.1 μM, 0.37 μM, 0.12 μM, 0.04 μM, 0.01 μM and more dilutions for very potent compounds. The present compounds have shown strong activity as agonists of hTRPM8. […] For the sake of comparison, the EC50 of Comparative Compound 1, which was previously disclosed in U.S. 2013/0324557 A1 and has the structure

[2] = Sensory evaluation by quantitative descriptive evaluation technique (ten trained panelists, 15-point linescale); type: in vivo, human
Method: Compounds 102-105 and Comparative Compound 1 were evaluated using a quantitative descriptive evaluation technique. Ten panelists participated in the study. These panelists previously underwent extensive training in the use of standardized vocabulary to describe the appearance, aroma, flavor, and texture of a variety of products. Data collection was conducted over a period of seven days, with panelists evaluating two samples on each day of testing. Two evaluations were obtained from each panelist for each compound yielding a total of 20 evaluations per compound. During the data collection, the panelists were give a list of attributes and instructed to indicate the intensity of each attribute by indicating the intensity on a 15-point linescale. The intensity was evaluated for the following time periods: in-mouth, after expectoration, and 30 seconds, 1, 2, 5, 10, 15, 30, 45, and 60 minutes into the aftertaste period.
Compounds 102, 103, and 105 were prepared as 5 μM solutions and Compound 104 and Comparative Compound 1 were prepared in 3 μM solutions. 15 mL aliqouts of the test solutions were administered to Panelists in 1 oz. plastic cups coded with a random 3-digit code. The Panelists refrained from brushing their teeth, eating, and drinking one hour before each evaluation. Mean intensities were calculated based on the Panelists responses for each sensory characteristic. The sensory characteristics evaluated were bitter, icy cool in mouth, numbing, cooling breathe in, total burning, alcohol burning, pepperine/capsaicin, tingling, and total trigeminal impact. For each sensory characteristic, the scale of the intensity was designed to cover a range encompassing the universe of products having the indicated sensory characteristic.
After mean intensities for each attribute were calculated, statistical significance for each mean intensity was calculated using analysis of variance (ANOVA) followed by Duncan's multiple comparison test at an alpha level of 5%. […] In the results provided herein, the Duncan's levels are reported as Levels A, B, and C.
Panelists were asked to assess the intensity of both capsaicin-like burning and Alcohol-like Burning sensations for Compounds 102 and 103 and Comparative Compound 1. Capsaicin-like burning is the sensation of warming or burning in the mouth, reminiscent of black pepper or hot sauce while alcohol-like burning is the sensation of warming or burning in the mouth, reminiscent of an alcohol burn. The combination of the intensity of these sensations was used to assess the total burning for the tested compounds. The average total burning after expectoration to 60 minutes was lower for both 5 μM Compound 102 and 5 μM Compound 103 as compared to 3 μM Comparative Compound 1.
The total intensity of trigeminal nerve feeling factors on the soft tissues of the mouth, including numbing, cooling (without breathing in), irritation, warming, burning, and tingling were determined for Compounds 102 and 103 and Comparative Compound 1. The average total trigeminal impact after expectoration to 60 minutes was lower for both 5 μM Compound 102 and 5 μM Compound 103 as compared to 3 μM Comparative Compound 1.
Icy cool in mouth is the sensation of coolness of the mouth, perceived with the mouth closed, not related to the temperature of the sample. Panelists were asked to assess the sensation of icy cool in mouth for Compound 104 and Compound 105 from the time immediately after expectoration of the sample through 60 minutes after expectoration. The average Icy Cool after expectoration to 60 minutes was higher for both 5 μM Compound 105 and 3 μM Compound 104 as compared to 3 μM Comparative Compound 1.
Cooling Breath In is the sensation of coolness of the mouth, when inhaling through the mouth, not related to the temperature of the sample. […]

[3] = Cool Line Scale Test (sensory study, cooling intensity vs 45 μM WS-3); type: in vivo, human; details: for Sensory Results (cooling intensity relative to 45 μM WS-3): 5 μM compound vs 45 μM WS-3, Low Sodium Buffer pH ~7.1, 0.1% ethanol, 15 point line scale; for lingering effect: sensory study
Method: A typical sensory study is described below followed by Table 5 summarizing sensory results of Compounds 101-105.
All samples made with Low Sodium Buffer (LSB) pH ˜7.1 and contain 0.1% ethanol.
Compounds are rated on a 15 point line scale where 45 μM WS-3 (N-Ethyl-p-menthane-3-carboxamide) is ranked as a 5 in cool intensity. In most cases, the compounds are tested to determine at what concentration the cooling intensity is equivalent to 45 μM WS-3. In each test, the panelist is presented with a 0 μM control sample, a 45 μM WS-3 control sample and the experimental compound sample and asked to rate the cooling intensity of each sample.

T1 sequence (Q7Z2W7 whole entry): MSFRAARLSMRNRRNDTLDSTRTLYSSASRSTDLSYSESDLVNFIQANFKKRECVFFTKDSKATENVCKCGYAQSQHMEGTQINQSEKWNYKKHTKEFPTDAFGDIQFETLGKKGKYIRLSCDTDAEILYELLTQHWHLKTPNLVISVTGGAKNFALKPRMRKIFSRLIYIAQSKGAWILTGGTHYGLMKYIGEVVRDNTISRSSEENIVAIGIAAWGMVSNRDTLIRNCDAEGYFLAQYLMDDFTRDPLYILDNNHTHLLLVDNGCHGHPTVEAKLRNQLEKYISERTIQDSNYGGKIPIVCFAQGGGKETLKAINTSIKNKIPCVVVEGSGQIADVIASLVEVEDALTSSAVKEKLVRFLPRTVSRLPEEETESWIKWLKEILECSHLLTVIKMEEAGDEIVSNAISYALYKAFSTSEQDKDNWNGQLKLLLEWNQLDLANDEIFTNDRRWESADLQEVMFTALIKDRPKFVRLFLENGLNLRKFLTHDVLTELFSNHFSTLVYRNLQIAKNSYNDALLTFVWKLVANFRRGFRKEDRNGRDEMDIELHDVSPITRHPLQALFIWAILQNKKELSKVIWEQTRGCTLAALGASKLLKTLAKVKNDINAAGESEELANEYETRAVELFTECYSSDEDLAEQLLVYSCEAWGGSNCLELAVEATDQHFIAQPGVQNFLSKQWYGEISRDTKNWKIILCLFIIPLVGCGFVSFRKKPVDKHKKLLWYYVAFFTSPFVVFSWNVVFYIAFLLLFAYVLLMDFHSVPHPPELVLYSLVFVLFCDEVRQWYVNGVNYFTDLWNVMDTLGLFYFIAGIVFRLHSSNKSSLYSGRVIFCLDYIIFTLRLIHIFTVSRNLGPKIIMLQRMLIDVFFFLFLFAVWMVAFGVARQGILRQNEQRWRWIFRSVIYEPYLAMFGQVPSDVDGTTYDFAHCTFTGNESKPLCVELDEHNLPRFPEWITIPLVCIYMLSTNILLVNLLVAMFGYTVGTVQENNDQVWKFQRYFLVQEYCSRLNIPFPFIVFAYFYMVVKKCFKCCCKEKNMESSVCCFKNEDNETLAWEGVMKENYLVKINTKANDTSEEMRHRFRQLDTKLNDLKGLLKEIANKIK

| Compound | EC50 WS-3 Ratio [1] | Average Cooling Breath In (after expectoration to 60 minutes) ([2]; 3 μM solution) | Average Icy Cool In Mouth (after expectoration to 60 minutes) ([2]; 3 μM solution) | Average Icy Cool In Mouth and Immediately After Expectoration ([2]; 3 μM solution) | Average Bitterness at 2 Minutes After Expectoration (Bitterness Rating) ([2]; 3 μM solution) | Average Numbing (after expectoration to 60 minutes) ([2]; 5 μM solution) | Average Tingling (after expectoration to 60 minutes) ([2]; 5 μM solution) | Average Total Burning (after expectoration to 60 minutes) ([2]; 5 μM solution) | Average Total Trigeminal Impact (after expectoration to 60 minutes) ([2]; 5 μM solution) | Average Bitterness at 2 Minutes After Expectoration (Bitterness Rating) ([2]; 5 μM solution) | Sensory Results (cooling intensity relative to 45 μM WS-3) [3] | lingering effect [3] | also measured |
| --- | --- | --- | --- | --- | --- | --- | --- | --- | --- | --- | --- | --- | --- |
| Cc1ccc(OCC(=O)N(Cc2cccs2)c2ccn[nH]2)cc1 [Comparative Compound 1, reference compound] | 28648 | 2.5 | 2.1 | 1.8 | 1.10 |  |  |  |  |  |  |  | Average Numbing (after expectoration to 60 minutes) ([2]; 3 μM solution): 1.5; Average Tingling (after expectoration to 60 minutes) ([2]; 3 μM solution): 0.7; Average Total Burning (after expectoration to 60 minutes) ([2]; 3 μM solution): 1.1; Average Total Trigeminal Impact (after expectoration to 60 minutes) ([2]; 3 μM solution): 2.8 |
| Cc1cccc(OCC(=O)N(Cc2cccs2)c2cc[nH]n2)c1 [Compound 101, N-(1H-pyrazol-3-yl)-N-(thiophen-2-ylmethyl)-2-(m-tolyloxy)acetamide] | 696.3 |  |  |  |  |  |  |  |  |  |  |  |  |
| O=C(COc1ccc(F)cc1)N(Cc1cccs1)c1cc[nH]n1 [Compound 102, 2-(4-flourophenoxy)-N-(1H-pyrazol-5-yl)-N-(thiophen-2-ylmethyl)acetamide] | 495.4 |  |  |  |  | 1.4 | 0.6 | 0.9 | 2.4 | 0.86 |  |  |  |
| COc1ccc(OCC(=O)N(Cc2cccs2)c2cc[nH]n2)cc1 [Compound 103, 2-(4-methoxyphenoxy)-N-(1H-pyrazol-3-yl)-N-(thiophen-2-ylmethyl)acetamide] | 1050.9 |  |  |  |  | 1.3 | 0.6 | 0.9 | 2.3 | 0.90 | equivalent to the cooling | unexpected lingering effect |  |
| CCc1ccc(OCC(=O)N(Cc2cccs2)c2cc[nH]n2)cc1 [Compound 104, 2-(4-ethylphenoxy)-N-(1H-pyrazol-3-yl)-N-(thiophen-2-ylmethyl)acetamide] | 1189444 | 2.7 | 2.3 | 2.0 | 0.77 |  |  |  |  |  | significantly more cooling | unexpected lingering effect |  |
| Cc1ccc(OCC(=O)N(Cc2cccs2)c2cc[nH]n2)cc1C [Compound 105, 2-(3,4-dimethylphenoxy)-N-(1H-pyrazol-3-yl)-N-(thiophen-2-ylmethyl)acetamide] | 12169.3 |  |  |  |  |  |  |  |  | 0.82 |  | unexpected lingering effect | Average Cooling Breath In (after expectoration to 60 minutes) ([2]; 5 μM solution): 2.7; Average Icy Cool In Mouth (after expectoration to 60 minutes) ([2]; 5 μM solution): 2.3; Average Icy Cool In Mouth and Immediately After Expectoration ([2]; 5 μM solution): 1.9 |
